Measured values reported in article PMC11500159, “Synthesis, α-Glucosidase, α-Amylase, and Aldol Reductase Inhibitory Activity with Molecular Docking Study of Novel Imidazo[1,2-a]pyridine Derivatives” (ACS Omega, 2024).

How the values were obtained:
aldose reductase (AR) = aldose reductase (AR) (Homo sapiens, UniProt P15121); assay: AR inhibitory activity (NADPH consumption, absorbance at 340 nm); assay type: biochemical; conditions: Lineweaver-Burk curves; mean ± SEM
Protocol: The activity was assessed using methods that were modified from previously established protocols.[48],[49] The inhibitory activity of AR was assessed by measuring the reduction in absorbance at 340 nm due to the consumption of NADPH. […] The IC50 of the derivatives was calculated from Activity (%) – [inhibitor] graphs for derivatives.

α-glycosidase (α-GLY) = α-glycosidase (α-GLY) (Saccharomyces cerevisiae, UniProt P53341); assay: α-GLY inhibitory activity (para-nitrophenyl-α-D-glucopyranoside substrate); assay type: biochemical; conditions: Lineweaver-Burk curves; for Ki: mean ± SEM
Protocol: In this analysis, a unit of α-GLY activity is defined as the amount of enzyme required to catalyze the hydrolysis of […] of substrate per minute at a standard pH of 7.4.
(§1) The inhibition effects of the novel imidazo[1,2-a]pyridine-based 1,3,4-thiadiazole derivatives were determined with different inhibitor concentrations (at least five) against AR, α-GLY, and α-AMY. The IC50 of the derivatives was calculated from Activity (%) – [inhibitor] graphs for derivatives. The inhibition types and KI values were found by Lineweaver and Burk’s curves.[50],[51]

α-amylase (α-AMY) = molecular target: T1, α-amylase (α-AMY) (Homo sapiens, UniProt P04746); assay: α-AMY inhibitory activity (starch-iodine method, absorbance at 580 nm); assay type: biochemical; conditions: from Activity (%) - [inhibitor] graphs
T1 sequence (P04746 16-511): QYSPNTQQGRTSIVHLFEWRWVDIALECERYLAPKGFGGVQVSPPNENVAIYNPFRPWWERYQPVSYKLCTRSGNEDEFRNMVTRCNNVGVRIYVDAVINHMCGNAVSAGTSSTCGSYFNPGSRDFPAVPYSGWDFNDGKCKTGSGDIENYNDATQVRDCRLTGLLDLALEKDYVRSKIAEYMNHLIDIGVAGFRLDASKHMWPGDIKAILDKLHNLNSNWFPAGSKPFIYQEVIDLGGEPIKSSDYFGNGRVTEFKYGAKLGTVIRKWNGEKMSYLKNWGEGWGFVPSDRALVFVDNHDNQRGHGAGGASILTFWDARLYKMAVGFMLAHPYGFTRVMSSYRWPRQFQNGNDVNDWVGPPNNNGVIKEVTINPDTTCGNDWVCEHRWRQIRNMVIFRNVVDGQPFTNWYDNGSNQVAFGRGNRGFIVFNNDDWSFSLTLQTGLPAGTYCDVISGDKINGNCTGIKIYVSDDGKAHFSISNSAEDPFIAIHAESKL
Protocol: The assay involved preparing a substrate solution of starch in NaOH, adjusting the pH with HCl, and diluting the solution to volume. Enzyme and sample solutions were preincubated, mixed with the substrate, and incubated again. The reaction was stopped with HCl, and the absorbance was measured at 580 nm.
as §1

α-glycosidase (α-GLY), sequence (P53341 whole entry): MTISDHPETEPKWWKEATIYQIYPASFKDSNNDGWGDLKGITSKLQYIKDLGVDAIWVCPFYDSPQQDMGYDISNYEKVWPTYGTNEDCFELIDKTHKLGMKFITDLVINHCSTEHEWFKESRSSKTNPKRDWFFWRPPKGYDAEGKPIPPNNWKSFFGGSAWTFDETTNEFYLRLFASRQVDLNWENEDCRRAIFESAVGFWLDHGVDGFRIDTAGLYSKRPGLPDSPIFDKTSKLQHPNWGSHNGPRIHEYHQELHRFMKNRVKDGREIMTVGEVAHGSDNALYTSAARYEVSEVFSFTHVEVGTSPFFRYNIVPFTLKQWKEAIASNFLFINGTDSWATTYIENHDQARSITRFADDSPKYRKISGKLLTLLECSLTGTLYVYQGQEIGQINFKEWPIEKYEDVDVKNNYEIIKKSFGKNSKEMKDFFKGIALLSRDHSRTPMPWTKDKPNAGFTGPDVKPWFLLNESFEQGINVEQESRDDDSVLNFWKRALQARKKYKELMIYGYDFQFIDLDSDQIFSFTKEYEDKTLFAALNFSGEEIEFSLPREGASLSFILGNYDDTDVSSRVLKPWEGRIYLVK

Row | Structure (SMILES) | Ki (aldose reductase (AR)) [µM] | Ki (α-glycosidase (α-GLY)) [µM] | α-GLY inhibition type (α-glycosidase (α-GLY)) | IC50 (α-amylase (α-AMY)) [µM] | melting point [°C]
1 | O=C(CSc1nnc(NC2CCCCC2)s1)Nc1ccc(-c2cn3ccccc3n2)cc1 [8c, 2-[(5-Cyclohexylamino-1,3,4-thiadiazol-2-yl)thio]-N-[4-(imidazo[1,2-a]pyridin-2-yl)phenyl] Acetamide] | 0.14 ± 0.0133 | 77.5 ± 5.74 | – | – | –
2 | CCc1ccc(Nc2nnc(SCC(=O)Nc3ccc(-c4cn5ccccc5n4)cc3)s2)cc1 [8b, 2-[(5-(4-Ethylphenyl)amino-1,3,4-thiadiazol-2-yl)thio]-N-[4-(imidazo[1,2-a]pyridin-2-yl)phenyl]acetamide] | – | – | noncompetitive inhibition | 113 | 244.2
3 | O=C(CSc1nnc(Nc2ccc(Cl)cc2)s1)Nc1ccc(-c2cn3ccccc3n2)cc1 [8f, 2-[(5-(4-Chlorophenyl)amino-1,3,4-thiadiazol-2-yl)thio]-N-[4-(imidazo[1,2-a]pyridin-2-yl)phenyl]acetamide] | – | – | – | 142 | 265
4 | O=C(CSc1nnc(Nc2ccccc2Cl)s1)Nc1ccc(-c2cn3ccccc3n2)cc1 [8j, 2-[(5-(2-Chlorophenyl)amino-1,3,4-thiadiazol-2-yl)thio]-N-[4-(imidazo[1,2-a]pyridin-2-yl)phenyl]acetamide] | – | – | – | 81.1 | 129
5 | COc1ccccc1Nc1nnc(SCC(=O)Nc2ccc(-c3cn4ccccc4n3)cc2)s1 [8i, 2-[(5-(2-Methoxyphenyl)amino-1,3,4-thiadiazol-2-yl)thio]-N-[4-(imidazo[1,2-a]pyridin-2-yl)phenyl]acetamide] | – | – | – | 154 | 104.9
6 | Cc1ccc(Nc2nnc(SCC(=O)Nc3ccc(-c4cn5ccccc5n4)cc3)s2)cc1 [8e, 2-[(5-(4-Methylphenyl)amino-1,3,4-thiadiazol-2-yl)thio]-N-[4-(imidazo[1,2-a]pyridin-2-yl)phenyl]acetamide] | – | – | competitive inhibition | – | 130.1
7 | O=C(CSc1nnc(Nc2cccc(Cl)c2)s1)Nc1ccc(-c2cn3ccccc3n2)cc1 [8g, 2-[(5-(3-Chlorophenyl)amino-1,3,4-thiadiazol-2-yl)thio]-N-[4-(imidazo[1,2-a]pyridin-2-yl)phenyl]acetamide] | – | – | – | 132 | 199.2
8 | COc1ccc(Nc2nnc(SCC(=O)Nc3ccc(-c4cn5ccccc5n4)cc3)s2)cc1 [8k, 2-[(5-(4-Methoxyphenyl)amino-1,3,4-thiadiazol-2-yl)thio]-N-[4-(imidazo[1,2-a]pyridin-2-yl)phenyl]acetamide] | – | – | – | 113 | 216.5
9 | O=C(CSc1nnc(Nc2ccccc2)s1)Nc1ccc(-c2cn3ccccc3n2)cc1 [8a, 2-[(5-Phenylamino-1,3,4-thiadiazol-2-yl)thio]-N-[4-(imidazo[1,2-a]pyridin-2-yl)phenyl] Acetamide] | 0.0349 ± 0.00359 | 33 ± 1.25 | – | 142 | –
10 | COc1cccc(Nc2nnc(SCC(=O)Nc3ccc(-c4cn5ccccc5n4)cc3)s2)c1 [8h, 2-[(5-(3-Methoxyphenyl)amino-1,3,4-thiadiazol-2-yl)thio]-N-[4-(imidazo[1,2-a]pyridin-2-yl)phenyl]acetamide] | – | – | – | 143 | 138.8
11 | CCNc1nnc(SCC(=O)Nc2ccc(-c3cn4ccccc4n3)cc2)s1 [8d, 2-[(5-Ethylamino-1,3,4-thiadiazol-2-yl)thio]-N-[4-(imidazo[1,2-a]pyridin-2-yl)phenyl] Acetamide] | 0.0785 ± 0.00824 | 88.7 ± 17.7 | – | 122 | –
